From publication PMC7311426, “An amphipathic peptide with antibiotic activity against multidrug-resistant Gram-negative bacteria” (Nature Communications, 2020)
Values after ≈ are worked out from the molar mass of the structure shown. Residues, ends and D or L forms follow the SMILES beside them.

Columns and labels:
[1] = tested on: HK-2 human kidney proximal tubule cells; test: in vitro
Procedure: (§1) HEK-293 human embryonic kidney cells (ATCC CRL-1573), HepG2 liver hepatocellular carcinoma cells (ATCC HB-8065), and HK-2 human kidney proximal tubule cells (ATCC CRL-2190) cell lines were purchased from ATCC. Cytotoxicity of arenicin-3 variants was determined using the Alamar Blue (resazurin; Sigma-Aldrich, Cat # R7017), with 1% FBS for HK-2 and 10% FBS for HEK-293, and HepG2[40]. Cells were seeded as 2000 cells per well in black wall clear bottom 384-well plates (Corning®, Costar®, Cat # 3712). The cells were incubated for 24 h at 37 °C, 5% CO2. Then peptides were added into each cell containing well. After 24 h incubation, 5 μM resazurin were added per well and incubated at 37 °C for 2 h. Then the fluorescence intensity (FI) was read using a Polarstar® Omega plate reader with excitation/emission 560/590 and CC50 values were determined using Prism 8 following curve fitting and applying the following equation: Percentageviability = (FITEST-FINegative/FIUNTREATED-FINegative)×100.
(§2) Hemolytic activity was measured against isolated human erythrocytes from anonymously donated fresh human blood. Isolated erythrocytes were adjusted to 1 × 10^9 blood cells mL^−1 in phosphate-buffered saline (PBS, pH 7.4), added to the wells of NUNC polypropylene round-bottom 96-well plates (Sigma-Aldrich, Cat # P6866) then up to 300 μg mL^−1 of compound was added per well and incubated for 3 h at 37 °C. Following incubation, samples were centrifuged at 3000 rpm for 20 min, and the supernatants, 100 μL, were carefully collected for measurement. The degree of hemolysis in the samples was determined by measurement of the absorption of the supernatants at 540 nm using the Polarstar-Omega plate reader. 1% Triton-X100 was used as positive control for inducing 100% hemolysis. HC10 and HC50 values were determined using Prism 8 following curve fitting. The use of human blood (sourced from the Australian Red Cross Blood Service) for hemolysis assays was approved by the University of Queensland Institutional Human Research Ethics Committee, Approval Number 2014000031. All in vitro toxicity assays were performed for two independent biological replicates as an 8-point dose response of 3-fold dilution series in triplicate with the highest test concentration of 300 μg mL^−1.

[2] = tested on: HepG2 liver hepatocellular carcinoma cells; test: in vitro
Procedure: as §1, §2

[3] = tested on: HEK-293 human embryonic kidney cells; test: in vitro
Procedure: as §1, §2

[4] = in vitro; settings: human
Procedure: as §1, §2

[5] = tested on: E. coli ATCC 25922; test: microbe, parasite or virus in culture; assay type: cell-based, Escherichia coli; settings: ATCC 25922
Procedure: Assays were performed in Mueller Hinton broth (MHB; BD, Cat. No. 211443) for bacteria, and yeast extract-peptone dextrose (YPD; Sigma-Aldrich, Y1500) for yeast. The concentrations of the peptides and comparator antibiotics/antifungals in the assay wells ranged from either 128 or 64 μg mL^−1, to 0.06 or 0.03 μg mL^−1 as a 12-point dose response plated as a 2-fold dilution series across the wells of the plate in duplicate for each independent biological replicate, using a final cell density of 5 × 10^5 CFU mL^−1 and 2.5 × 10^3 CFU mL^−1 for bacteria and yeast respectively. Final assay volumes were 100 μL per well with MICs determined visually following 18-20 h incubation at 37 °C for bacteria, 24 h incubation at 35 °C for Candida albicans, and 24 h incubation at 35 °C with resazurin addition (0.006%; Sigma-Aldrich, Cat # R7017) for a further 3 h for Cryptococcus neoformans, without shaking. Additional bacterial and yeast susceptibility assays were performed in Cation-Adjusted Mueller Hinton Broth (CAMHB; BD, Cat No. 212322) and Roswell Park Memorial Institute (RPMI) 1640 culture medium (Life Technologies Australia, Cat No. 21870092), respectively, as recommended by CLSI guidelines (M07 11th ed[36] and M27 4th ed[37]). […] However, for yeast it was determined that the YPD media was more reliable and robust between repeats and therefore MICs in this media are reported. […] Agarose MICs were determined in MHB with 1% agarose (Bioline molecular grade; Cat no: BIO-41025; high purity, high gel strength). All experiments were performed a minimum of six replicates (n ≥ 6).

[6] = tested on: P. aeruginosa; test: microbe, parasite or virus in culture
Procedure: (§3) Antimicrobial activity of arenicin-3 and its analogs was tested against a panel of bacterial and yeast strains by in vitro broth microdilution (BMD) assay with minimum inhibitory concentration (MIC) determination. Strains were purchased from American Type Culture Collection (ATCC) or obtained from clinical collaborators (full strain profiles provided in Supplementary Data 3). All peptides were prepared in Ringer’s acetate solution, and subsequently diluted fresh in water for each independent assay.
(§4) Assays were performed in Mueller Hinton broth (MHB; BD, Cat. No. 211443) for bacteria, and yeast extract-peptone dextrose (YPD; Sigma-Aldrich, Y1500) for yeast. The concentrations of the peptides and comparator antibiotics/antifungals in the assay wells ranged from either 128 or 64 μg mL^−1, to 0.06 or 0.03 μg mL^−1 as a 12-point dose response plated as a 2-fold dilution series across the wells of the plate in duplicate for each independent biological replicate, using a final cell density of 5 × 10^5 CFU mL^−1 and 2.5 × 10^3 CFU mL^−1 for bacteria and yeast respectively. Final assay volumes were 100 μL per well with MICs determined visually following 18-20 h incubation at 37 °C for bacteria, 24 h incubation at 35 °C for Candida albicans, and 24 h incubation at 35 °C with resazurin addition (0.006%; Sigma-Aldrich, Cat # R7017) for a further 3 h for Cryptococcus neoformans, without shaking. Additional bacterial and yeast susceptibility assays were performed in Cation-Adjusted Mueller Hinton Broth (CAMHB; BD, Cat No. 212322) and Roswell Park Memorial Institute (RPMI) 1640 culture medium (Life Technologies Australia, Cat No. 21870092), respectively, as recommended by CLSI guidelines (M07 11th ed[36] and M27 4th ed[37]). […] Agarose MICs were determined in MHB with 1% agarose (Bioline molecular grade; Cat no: BIO-41025; high purity, high gel strength). All experiments were performed a minimum of six replicates (n ≥ 6).

[7] = tested on: E. coli; test: microbe, parasite or virus in culture
Procedure: as §3, §4

[8] = tested on: K. pneumoniae; test: microbe, parasite or virus in culture
Procedure: as §3, §4

[9] = tested on: A. baumannii; test: microbe, parasite or virus in culture
Procedure: as §3, §4

[10] = tested on: C. albicans; test: microbe, parasite or virus in culture; settings: 24 h
Procedure: as §3, §4

[11] = tested on: S. aureus; test: microbe, parasite or virus in culture
Procedure: as §3, §4

[12] = tested on: human erythrocytes (HRBC); assay type: cell-based; settings: for Heamolysis HC10: red cells of human, 3 h

SMILES	CC50 HK2 [1]	CC50 HK2, Mean [1]	CC50 HepG2 [2]	CC50 HepG2, Mean [2]	CC50 HEK293 [3]	CC50 HEK293, Mean [3]	CC50 at 24 h ([4]; HEK-293 cells)	CC50 at 24 h ([4]; HK-2 cells)	CC50 at 24 h ([4]; HepG2 cells)	MIC, MHB [5]	BMD MIC [6]	BMD MIC [7]	BMD MIC [8]	BMD MIC [9]	BMD MIC [10]	BMD MIC [11]	Heamolysis HC10, Mean [12]	Heamolysis HC10 [12]
CC(C)[C@@H]1NC(=O)CNC(=O)[C@H](CC(N)=O)NC(=O)[C@H](CCCNC(=N)N)NC(=O)[C@H](Cc2ccc(O)cc2)NC(=O)[C@H](C(C)C)NC(=O)[C@@H]2CSSC[C@H](NC(=O)[C@H](C)NC(=O)[C@H](CCCNC(=N)N)NC1=O)C(=O)N[C@@H](Cc1ccc(O)cc1)C(=O)N[C@@H](CCCNC(=N)N)C(=O)N[C@@H](CCCNC(=N)N)C(=O)N[C@H](C(=O)N[C@@H](CC(N)=O)C(=O)O)CSSC[C@H](NC(=O)[C@H](Cc1ccccc1)NC(=O)CN)C(=O)N[C@@H](Cc1c[nH]c3ccccc13)C(=O)N[C@@H](CCCNC(=N)N)C(=O)N[C@@H](C)C(=O)N2 [NZ17228] (HELM PEPTIDE1{G.F.C.W.R.A.C.V.Y.R.N.G.V.R.A.C.Y.R.R.C.N}$PEPTIDE1,PEPTIDE1,3:R3-20:R3|PEPTIDE1,PEPTIDE1,7:R3-16:R3$$$V2.0)	>255 µg/mL	>250 µg/mL	>300 µg/mL	>300 µg/mL	>300 µg/mL	>300 µg/mL	> 300 µg/mL	> 250 µg/mL	> 300 µg/mL	0.125 µg/mL (≈ 0.049 µM)	0.5 µg/mL	0.125 µg/mL	0.25 µg/mL	1 µg/mL	64 µg/mL	64 µg/mL	>300 µg/mL	>300 µg/mL
CC(C)[C@@H]1NC(=O)CNC(=O)[C@H](CC(N)=O)NC(=O)[C@H](CCCNC(=N)N)NC(=O)[C@H](Cc2ccc(O)cc2)NC(=O)[C@H](C(C)C)NC(=O)[C@@H]2CSSC[C@H](NC(=O)[C@H](C(C)C)NC(=O)[C@H](CCCNC(=N)N)NC1=O)C(=O)N[C@@H](Cc1ccc(O)cc1)C(=O)N[C@@H](CCCNC(=N)N)C(=O)N[C@@H](CCCNC(=N)N)C(=O)N[C@H](C(=O)N[C@@H](CC(N)=O)C(=O)O)CSSC[C@H](NC(=O)[C@H](Cc1ccccc1)NC(=O)CN)C(=O)N[C@@H](Cc1c[nH]c3ccccc13)C(=O)N[C@@H](CCCNC(=N)N)C(=O)N[C@@H](C)C(=O)N2 [NZ17230] (HELM PEPTIDE1{G.F.C.W.R.A.C.V.Y.R.N.G.V.R.V.C.Y.R.R.C.N}$PEPTIDE1,PEPTIDE1,3:R3-20:R3|PEPTIDE1,PEPTIDE1,7:R3-16:R3$$$V2.0)	>258 µg/mL	>250 µg/mL	>300 µg/mL	>300 µg/mL		223 µg/mL (≈ 86.5 µM)	223 µg/mL (≈ 86.5 µM)	> 250 µg/mL	> 300 µg/mL	0.25 µg/mL (≈ 0.097 µM)	0.25 µg/mL		0.25 µg/mL	0.5 µg/mL	64 µg/mL	64 µg/mL	>300 µg/mL	>300 µg/mL
CC(C)C[C@@H]1NC(=O)CNC(=O)[C@H](CC(N)=O)NC(=O)[C@H](CCCNC(=N)N)NC(=O)[C@H](CCCCN)NC(=O)[C@H](C)NC(=O)[C@@H]2CSSC[C@H](NC(=O)[C@H](C(C)C)NC(=O)[C@H](CCCNC(=N)N)NC1=O)C(=O)N[C@@H](Cc1ccc(O)cc1)C(=O)N[C@@H](CCCNC(=N)N)C(=O)N[C@@H](CCCNC(=N)N)C(=O)N[C@H](C(=O)N[C@@H](CC(N)=O)C(=O)O)CSSC[C@H](NC(=O)[C@H](Cc1ccccc1)NC(=O)CN)C(=O)N[C@@H](Cc1c[nH]c3ccccc13)C(=O)N[C@@H](Cc1ccc(O)cc1)C(=O)N[C@@H](C)C(=O)N2 [NZ17126] (HELM PEPTIDE1{G.F.C.W.Y.A.C.A.K.R.N.G.L.R.V.C.Y.R.R.C.N}$PEPTIDE1,PEPTIDE1,3:R3-20:R3|PEPTIDE1,PEPTIDE1,7:R3-16:R3$$$V2.0)	>254 µg/mL	>250 µg/mL	>300 µg/mL	>300 µg/mL	>300 µg/mL	>300 µg/mL	> 300 µg/mL	> 250 µg/mL	> 300 µg/mL		0.25 µg/mL	0.125 µg/mL	0.25 µg/mL	1 µg/mL	>64 µg/mL	32 µg/mL	232 µg/mL	
